Measurements as given in the NIST ThermoML archive (doi:10.1016/j.fluid.2015.04.021).

Columns and labels:
[1] = Liquid; for viscosity: Falling or rolling sphere viscometry; for mass density: Vibrating tube method
[2] = cn = amount concentration of the nth substance listed, in mol/dm3; conditions: 101.3 kPa, Liquid, Falling or rolling sphere viscometry, c2 = 0

O [water]
[1], 101.3 kPa
Conditions | viscosity [mPa·s]
293.15 K | 1.002
298.15 K | 0.8908
303.15 K | 0.799
308.15 K | 0.722
313.15 K | 0.6564
318.15 K | 0.6009

NCCO [2-aminoethan-1-ol]
[1], 101.33 kPa
Conditions | mass density [kg/m3] | viscosity [mPa·s]
303.15 K | 1007.7 | 14.61
313.15 K | 999.8 | 9.724
323.15 K | 991.7 | 6.807
333.15 K | 983.7 | 4.97
343.15 K | 975.5 | 3.784

O [water] + NCCCC[C@H](N)C(=O)[O-].[K+]
[2]
Conditions | viscosity [mPa·s]
298.15 K | 0.8908
303.15 K | 0.799
308.15 K | 0.722
313.15 K | 0.6564
318.15 K | 0.6009

O [water] + O=C([O-])[C@@H]1CCCN1.[K+]
[2]
Conditions | viscosity [mPa·s]
298.15 K | 0.8908
303.15 K | 0.799
308.15 K | 0.722
313.15 K | 0.6564
318.15 K | 0.6009
